# Source: US10829501B2 (BRISTOL-MYERS SQUIBB COMPANY, priority 2016, dated 2020)
# Target: ROCK2 (Homo sapiens, UniProt O75116)
# Test: ROCK2 kinase inhibition assay (LABCHIP 3000 Reader, FITC peptide substrate);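 further: rho kinase reaction read by separating phosphorylated from unphosphorylated peptide on chip, with inhibition of kinase activity computed per concentration across a dose-response series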
# ROCK2, sequence (O75116 whole entry, species assumed): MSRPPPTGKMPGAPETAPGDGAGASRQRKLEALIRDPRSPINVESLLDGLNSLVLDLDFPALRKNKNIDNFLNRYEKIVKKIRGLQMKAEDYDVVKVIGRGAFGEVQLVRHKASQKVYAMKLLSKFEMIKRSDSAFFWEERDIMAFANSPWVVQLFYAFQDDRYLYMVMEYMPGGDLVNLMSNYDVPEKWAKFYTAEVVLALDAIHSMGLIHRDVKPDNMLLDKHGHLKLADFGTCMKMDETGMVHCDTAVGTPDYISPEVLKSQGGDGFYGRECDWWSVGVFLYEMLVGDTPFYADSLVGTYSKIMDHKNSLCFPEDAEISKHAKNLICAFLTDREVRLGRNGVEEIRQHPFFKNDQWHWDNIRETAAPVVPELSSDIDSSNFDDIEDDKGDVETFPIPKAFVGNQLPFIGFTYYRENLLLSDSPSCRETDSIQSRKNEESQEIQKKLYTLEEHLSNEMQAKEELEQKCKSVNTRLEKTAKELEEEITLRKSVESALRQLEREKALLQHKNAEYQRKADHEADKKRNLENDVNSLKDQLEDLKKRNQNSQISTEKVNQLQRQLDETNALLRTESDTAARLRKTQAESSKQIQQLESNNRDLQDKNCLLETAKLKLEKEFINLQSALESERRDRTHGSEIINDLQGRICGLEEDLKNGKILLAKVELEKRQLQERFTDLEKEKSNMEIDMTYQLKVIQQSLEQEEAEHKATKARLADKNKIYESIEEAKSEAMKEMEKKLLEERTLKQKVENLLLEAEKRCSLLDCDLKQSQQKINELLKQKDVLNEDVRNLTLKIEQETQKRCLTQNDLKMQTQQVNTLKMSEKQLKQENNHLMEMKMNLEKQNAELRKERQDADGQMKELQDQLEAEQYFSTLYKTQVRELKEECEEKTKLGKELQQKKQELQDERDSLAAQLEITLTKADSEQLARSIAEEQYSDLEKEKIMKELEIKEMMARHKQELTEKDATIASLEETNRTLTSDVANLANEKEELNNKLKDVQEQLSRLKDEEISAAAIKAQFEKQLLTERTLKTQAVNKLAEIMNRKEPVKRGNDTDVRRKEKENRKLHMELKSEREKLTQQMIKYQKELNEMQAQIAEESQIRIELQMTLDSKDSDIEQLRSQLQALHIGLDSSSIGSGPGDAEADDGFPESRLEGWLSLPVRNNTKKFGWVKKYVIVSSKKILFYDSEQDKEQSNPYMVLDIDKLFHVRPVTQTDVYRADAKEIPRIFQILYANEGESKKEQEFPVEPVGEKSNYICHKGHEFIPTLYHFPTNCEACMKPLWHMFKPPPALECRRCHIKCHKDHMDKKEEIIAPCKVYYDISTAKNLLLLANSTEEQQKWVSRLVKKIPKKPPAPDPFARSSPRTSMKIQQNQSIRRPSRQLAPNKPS
row,IC50 [nM],SMILES
1,< 5,"NC(=O)c1cccnc1O[C@H]1CC2(C[C@H](NC(=O)c3cnc4cc(N5CCC(F)(F)C5)ccn34)C2)C1 (stereo partly drawn) [Example 323, N-((aR)-6-((3-carbamoylpyridin-2-yl)oxy)spiro[3.3]heptan-2-yl)-7-(3,3-difluoropyrrolidin-1-yl)imidazo[1,2-a]pyridine-3-carboxamide]"
2,< 5,"NC(=O)c1cccnc1O[C@H]1CC2(C[C@H](NC(=O)c3cnc4cc(N5CCC(F)(F)CC5)ccn34)C2)C1 (stereo partly drawn) [Example 324, N-((aR)-6-((3-carbamoylpyridin-2-yl)oxy)spiro[3.3]heptan-2-yl)-7-(4,4-difluoropiperidin-1-yl)imidazo[1,2-a]pyridine-3-carboxamide]"
3,5 to 50,"NC(=O)c1cccnc1O[C@H]1CC2(C[C@H](NC(=O)c3cnc4cc(OCCN5CCCC5)ccn34)C2)C1 (stereo partly drawn) [Example 325, N-((aR)-6-((3-carbamoylpyridin-2-yl)oxy)spiro[3.3]heptan-2-yl)-7-(2-(pyrrolidin-1-yl)ethoxy)imidazo[1,2-a]pyridine-3-carboxamide]"
4,5 to 50,"NC(=O)c1cccnc1O[C@H]1CC2(C[C@H](NC(=O)c3cnc4cc(N5CC[C@@H](O)C5)ccn34)C2)C1 (stereo partly drawn) [Example 326, N-((aR)-6-((3-carbamoylpyridin-2-yl)oxy)spiro[3.3]heptan-2-yl)-7-((R)-3-hydroxypyrrolidin-1-yl)imidazo[1,2-a]pyridine-3-carboxamide]"
5,< 5,"NC(=O)c1cccnc1O[C@H]1CC2(C[C@H](NC(=O)c3cnc4cc(N5CC[C@@H](F)C5)ccn34)C2)C1 (stereo partly drawn) [Example 329, N-((aR)-6-((3-carbamoylpyridin-2-yl)oxy)spiro[3.3]heptan-2-yl)-7-((R)-3-fluoropyrrolidin-1-yl)imidazo[1,2-a]pyridine-3-carboxamide]"
6,5 to 50,"C[C@H](O)COc1ccc2c(C(=O)N[C@H]3CC4(C3)C[C@H](Oc3ncccc3C(N)=O)C4)cnn2c1 (stereo partly drawn) [Example 333, N-((aR)-6-((3-carbamoylpyridin-2-yl)oxy)spiro[3.3]heptan-2-yl)-6-((S)-2-hydroxypropoxy)pyrazolo[1,5-a]pyridine-3-carboxamide]"
7,5 to 50,"Cn1cc(-c2ccn3c(C(=O)N[C@H]4CC5(C4)C[C@H](Oc4ncccc4C(N)=O)C5)cnc3c2)cn1 (stereo partly drawn) [Example 337, N-((aR)-6-((3-carbamoylpyridin-2-yl)oxy)spiro[3.3]heptan-2-yl)-7-(1-methyl-1H-pyrazol-4-yl)imidazo[1,2-a]pyridine-3-carboxamide]"
8,5 to 50,"NC(=O)c1cccnc1O[C@H]1CC2(C[C@H](NC(=O)c3cnn4cc(OC5CCS(=O)(=O)CC5)ccc34)C2)C1 (stereo partly drawn) [Example 339, N-((aR)-6-((3-carbamoylpyridin-2-yl)oxy)spiro[3.3]heptan-2-yl)-6-((1,1-dioxidotetrahydro-2H-thiopyran-4-yl)oxy)pyrazolo[1,5-a]pyridine-3-carboxamide]"
9,< 5,"NC(=O)c1cccnc1O[C@H]1CC2(C[C@H](NC(=O)c3cnn4c(C5CC5)c(OC(CF)CF)ccc34)C2)C1 (stereo partly drawn) [Example 341, N-((aR)-6-((3-carbamoylpyridin-2-yl)oxy)spiro[3.3]heptan-2-yl)-7-cyclopropyl-6-((1,3-difluoropropan-2-yl)oxy)pyrazolo[1,5-a]pyridine-3-carboxamide]"
10,< 5,"NC(=O)c1cccnc1O[C@H]1CC2(C[C@H](NC(=O)c3cnn4c(C5CC5)c(OCC5CCCO5)ccc34)C2)C1 (stereo partly drawn) [Example 342, N-((aR)-6-((3-carbamoylpyridin-2-yl)oxy)spiro[3.3]heptan-2-yl)-7-cyclopropyl-6-((tetrahydrofuran-2-yl)methoxy)pyrazolo[1,5-a]pyridine-3-carboxamide]"

# More lines, now with the values behind:
row,SMILES,IC50 [nM]
1,"NC(=O)c1cccnc1O[C@H]1CC2(C[C@H](NC(=O)c3cnn4cc(OCC(O)C(F)(F)F)ccc34)C2)C1 (stereo partly drawn) [Example 314, N-((aR)-6-((3-carbamoylpyridin-2-yl)oxy)spiro[3.3]heptan-2-yl)-6-(3,3,3-trifluoro-2-hydroxypropoxy)pyrazolo[1,5-a]pyridine-3-carboxamide]",< 5
2,"NC(=O)c1cccnc1O[C@H]1CC2(C[C@H](NC(=O)c3cnn4cc(OCC(O)(C(F)(F)F)C(F)(F)F)ccc34)C2)C1 (stereo partly drawn) [Example 315, N-((aR)-6-((3-carbamoylpyridin-2-yl)oxy)spiro[3.3]heptan-2-yl)-6-(3,3,3-trifluoro-2-hydroxy-2-(trifluoromethyl)propoxy)pyrazolo[1,5-a]pyridine-3-carboxamide]",5 to 50
3,"NC(=O)c1cccnc1O[C@H]1CC2(C[C@H](NC(=O)c3cnn4cc(N5CCC(F)(F)CC5)ccc34)C2)C1 (stereo partly drawn) [Example 316, N-((aR)-6-((3-carbamoylpyridin-2-yl)oxy)spiro[3.3]heptan-2-yl)-6-(4,4-difluoropiperidin-1-yl)pyrazolo[1,5-a]pyridine-3-carboxamide]",< 5
4,"NC(=O)c1cccnc1O[C@H]1CC2(C[C@H](NC(=O)c3cnn4cc(N5CCOCC5)ccc34)C2)C1 (stereo partly drawn) [Example 317, N-((aR)-6-((3-carbamoylpyridin-2-yl)oxy)spiro[3.3]heptan-2-yl)-6-morpholinopyrazolo[1,5-a]pyridine-3-carboxamide]",5 to 50
5,"NC(=O)c1cccnc1O[C@H]1CC2(C[C@H](NC(=O)c3cnn4cc(N5CC[C@@H](F)C5)ccc34)C2)C1 (stereo partly drawn) [Example 318, N-((aR)-6-((3-carbamoylpyridin-2-yl)oxy)spiro[3.3]heptan-2-yl)-6-((R)-3-fluoropyrrolidin-1-yl)pyrazolo[1,5-a]pyridine-3-carboxamide]",< 5
6,"CN1CCN(c2ccc3c(C(=O)N[C@H]4CC5(C4)C[C@H](Oc4ncccc4C(N)=O)C5)cnn3c2)CC1 (stereo partly drawn) [Example 319, N-((aR)-6-((3-carbamoylpyridin-2-yl)oxy)spiro[3.3]heptan-2-yl)-6-(4-methylpiperazin-1-yl)pyrazolo[1,5-a]pyridine-3-carboxamide]",5 to 50
7,"CC(C)c1c(OCC(C)(C)O)ccc2c(C(=O)N[C@H]3CC4(C3)C[C@H](Oc3ncccc3C(N)=O)C4)cnn12 (stereo partly drawn) [Example 320, N-((aR)-6-((3-carbamoylpyridin-2-yl)oxy)spiro[3.3]heptan-2-yl)-6-(2-hydroxy-2-methylpropoxy)-7-isopropylpyrazolo[1,5-a]pyridine-3-carboxamide]",5 to 50
8,"Cc1c(OCC(C)(C)O)ccc2c(C(=O)N[C@H]3CC4(C3)C[C@H](Oc3ncccc3C(N)=O)C4)cnn12 (stereo partly drawn) [Example 321, N-((aR)-6-((3-carbamoylpyridin-2-yl)oxy)spiro[3.3]heptan-2-yl)-6-(2-hydroxy-2-methylpropoxy)-7-methylpyrazolo[1,5-a]pyridine-3-carboxamide]",5 to 50
9,"NC(=O)c1cccnc1O[C@H]1CC2(C[C@H](NC(=O)c3cnc4cc(N5CC[C@H](F)C5)ccn34)C2)C1 (stereo partly drawn) [Example 322, N-((aR)-6-((3-carbamoylpyridin-2-yl)oxy)spiro[3.3]heptan-2-yl)-7-((S)-3-fluoropyrrolidin-1-yl)imidazo[1,2-a]pyridine-3-carboxamide]",< 5
10,"NC(=O)c1cccnc1O[C@H]1CC2(C[C@H](NC(=O)c3cnc4ccc(F)cn34)C2)C1 (stereo partly drawn) [Example 327, N-((aR)-6-((3-carbamoylpyridin-2-yl)oxy)spiro[3.3]heptan-2-yl)-6-fluoroimidazo[1,2-a]pyridine-3-carboxamide]",50 to 250
11,"CC(O)c1ccn2c(C(=O)N[C@H]3CC4(C3)C[C@H](Oc3ncccc3C(N)=O)C4)cnc2c1 (stereo partly drawn) [Example 328, N-((aR)-6-((3-carbamoylpyridin-2-yl)oxy)spiro[3.3]heptan-2-yl)-7-(1-hydroxyethyl)imidazo[1,2-a]pyridine-3-carboxamide]",50 to 250
12,"C[C@@H](O)COc1ccc2c(C(=O)N[C@H]3CC4(C3)C[C@H](Oc3ncccc3C(N)=O)C4)cnn2c1 (stereo partly drawn) [Example 330, N-((aR)-6-((3-carbamoylpyridin-2-yl)oxy)spiro[3.3]heptan-2-yl)-6-((R)-2-hydroxypropoxy)pyrazolo[1,5-a]pyridine-3-carboxamide]",5 to 50
13,"NC(=O)c1cccnc1O[C@H]1CC2(C[C@H](NC(=O)c3cnc4cc(OCC(F)F)ccn34)C2)C1 (stereo partly drawn) [Example 331, N-((aR)-6-((3-carbamoylpyridin-2-yl)oxy)spiro[3.3]heptan-2-yl)-7-(2,2-difluoroethoxy)imidazo[1,2-a]pyridine-3-carboxamide]",5 to 50
14,"NC(=O)c1cccnc1O[C@H]1CC2(C[C@H](NC(=O)c3cnc4cc(OC(CF)CF)ccn34)C2)C1 (stereo partly drawn) [Example 332, N-((aR)-6-((3-carbamoylpyridin-2-yl)oxy)spiro[3.3]heptan-2-yl)-7-((1,3-difluoropropan-2-yl)oxy)imidazo[1,2-a]pyridine-3-carboxamide]",5 to 50
15,"NC(=O)c1cccnc1O[C@H]1CC2(C[C@H](NC(=O)c3cnc4cc(C(F)(F)F)ccn34)C2)C1 (stereo partly drawn) [Example 334, N-((aR)-6-((3-carbamoylpyridin-2-yl)oxy)spiro[3.3]heptan-2-yl)-7-(trifluoromethyl)imidazo[1,2-a]pyridine-3-carboxamide]",50 to 250
16,"Cc1ccn2c(C(=O)N[C@H]3CC4(C3)C[C@H](Oc3ncccc3C(N)=O)C4)cnc2c1 (stereo partly drawn) [Example 335, N-((aR)-6-((3-carbamoylpyridin-2-yl)oxy)spiro[3.3]heptan-2-yl)-7-methylimidazo[1,2-a]pyridine-3-carboxamide]",5 to 50
17,"CN1CCN(c2ccn3c(C(=O)N[C@H]4CC5(C4)C[C@H](Oc4ncccc4C(N)=O)C5)cnc3c2)CC1 (stereo partly drawn) [Example 336, N-((aR)-6-((3-carbamoylpyridin-2-yl)oxy)spiro[3.3]heptan-2-yl)-7-(4-methylpiperazin-1-yl)imidazo[1,2-a]pyridine-3-carboxamide]",5 to 50
18,"NC(=O)c1cccnc1O[C@H]1CC2(C[C@H](NC(=O)c3cnn4cc(OC5CCC5)ccc34)C2)C1 (stereo partly drawn) [Example 338, N-((aR)-6-((3-carbamoylpyridin-2-yl)oxy)spiro[3.3]heptan-2-yl)-6-cyclobutoxypyrazolo[1,5-a]pyridine-3-carboxamide]",5 to 50
19,"NC(=O)c1cccnc1O[C@H]1CC2(C[C@H](NC(=O)c3cnn4c(C5CC5)c(OCCOCC(F)(F)F)ccc34)C2)C1 (stereo partly drawn) [Example 340, N-((aR)-6-((3-carbamoylpyridin-2-yl)oxy)spiro[3.3]heptan-2-yl)-7-cyclopropyl-6-(2-(2,2,2-trifluoroethoxy)ethoxy)pyrazolo[1,5-a]pyridine-3-carboxamide]",5 to 50
